In general, inhibition refers to the change of the read-out against control, counted positive when it falls. The term IC50 denotes the concentration that gives 50% inhibition.

For 15 compounds, inhibition and IC50 results are on record in US20100099703A1, “PHENYLAMINO-SUBSTITUTED PIPERIDINE COMPOUNDS, THEIR PREPARATION AND USE AS MEDICAMENTS” (priority 2006, published 2010).

The target in the experiment is T1, rat Y5 receptor (Rattus norvegicus, UniProt Q63634).
T1 construct: expressed in transfected cells; host or cells: C6 cells (membrane preparation)
T1 sequence (Q63634 1-445): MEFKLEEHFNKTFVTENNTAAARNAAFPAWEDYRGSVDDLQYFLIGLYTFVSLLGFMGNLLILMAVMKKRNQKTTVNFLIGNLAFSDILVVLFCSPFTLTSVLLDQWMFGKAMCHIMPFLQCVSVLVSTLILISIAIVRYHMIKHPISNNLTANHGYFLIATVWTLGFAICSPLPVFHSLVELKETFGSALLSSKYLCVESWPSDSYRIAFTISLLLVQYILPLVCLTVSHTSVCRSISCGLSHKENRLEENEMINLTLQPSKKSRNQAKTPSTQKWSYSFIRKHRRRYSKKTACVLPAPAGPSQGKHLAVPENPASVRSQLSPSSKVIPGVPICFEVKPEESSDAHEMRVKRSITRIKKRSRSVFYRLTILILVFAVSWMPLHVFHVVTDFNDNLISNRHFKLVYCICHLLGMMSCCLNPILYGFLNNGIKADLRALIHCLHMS
Briefly: Neuropeptide Y5 receptor binding ([125I]-PYY displacement, membranes of transfected C6 cells). The conditions noted are these: radioligand [125I]-PYY 100 pM, C6 cells transfected with rat Y5 receptor; for inhibition at 1 µM: compound at 10^−6 M. The method, then:
Neuropeptide Y5 Receptor Binding Studies:
The methods used for membrane preparation and binding are similar to those described by Y. Hu, B. T. Bloomquist et al. in Y. Hu, B. T. Bloomquist et al., The Journal of Biological Chemistry, 1996, 271, 26315-26319 with modifications. Said literature description is herewith incorporated by reference and forms part of the disclosure. Cells C6 were transfected with the rat Y5 receptor. The cells were grown under standard culture conditions in 150 cm^2 dishes and they were harvested using a rubber scraper and 10 ml PBS. The cells from five dishes were collected and centrifuged 2.500 g for 5 min (4° C.). The pellet was washed by resuspending in 3 ml buffer (Tris-HCl 10 mM, pH 7.4), homogenized using a Potter S homogenizer, 10 strokes at 600 rpm and centrifuged 48.000 g for 20 min (4° C.). The pellet was resuspended in 8 ml membrane buffer (Tris-HCl 25 mM, NaCl 120 mM, KCl 5 mM, KH2PO4 1.2 mM, CaCl2 2.5 mM, MgSO4 1.2 mM, BSA 0.15 mg/ml, Bacitracine 0.5 mg/ml, pH 7.4) and rehomogenized using the Potter S, 10 strokes at 600 rpm. The protein concentration in the incubation was 40 μg/ml. The radioligand was [^125I]-PYY (100 pM) in a total incubation volume of 200 μl. Following incubation at 25° C. for 2 h, the reaction was stopped by addition of 5 ml ice-cold buffer (Tris-HCl 25 mM, NaCl 120 mM, KCl 5 mM, KH2PO4 1.2 mM, CaCl2 2.5 mM, MgSO4 1.2 mM, pH 7.4) and rapid filtration in a Harvester Brandell Cell using filters (Schleicher & Schuell GF 3362) pretreated for two hours with 0.5% polyethyleneimine. Filters were washed one time with 5 ml ice-cold buffer. The filters were placed into plastic scintilation vials and 5 ml scintilation cocktail Ecoscint H were added. The quantity of radioactivity present was determined in a Wallac Winspectral 1414 counter. Non specific binding was determined in the presence of 1 μM de pNPY. All binding assays were done in triplicate.

As for `O=C(CN1CCC(Nc2ccccc2O)CC1)Nc1cnc2ccccc2c1` [Example 1, 2-[4-(2-Hydroxy-phenylamino)-piperidin-1-yl]-N-quinolin-3-yl-acetamide], the inhibition at 1 µM is 5.6%. Take `CCn1c2ccccc2c2cc(NC(=O)CN3CCC(Nc4ccccc4OC)CC3)ccc21` [Example 17, N-(9-Ethyl-9H-carbazol-3-yl)-2-[4-(2-methoxy-phenylamino)-piperidin-1-yl]-acetamide]: the inhibition at 1 µM is 101% and the IC50 was found to be 46.9 nM.

Consider `CCN(CCO)c1ccc(NC(=O)CN2CCC(Nc3cccc(O)c3)CC2)cc1` [Example 12, N-{4-[Ethyl-(2-hydroxy-ethyl)-amino]-phenyl}-2-[4-(3-hydroxy-phenylamino)-piperidin-1-yl]-acetamide], for which the inhibition at 1 µM came out at 51.2%.

Take `O=C(CN1CCC(N(CC(=O)Nc2ccc3c(c2)-c2ccccc2C3=O)c2ccc(O)cc2)CC1)Nc1ccc2c(c1)-c1ccccc1C2=O` [Example 38, 2-(4-{(4-Hydroxy-phenyl)-[(9-oxo-9H-fluoren-3-ylcarbamoyl)-methyl]-amino}-piperidin-1-yl)-N-(9-oxo-9H-fluoren-3-yl)-acetamide]: the inhibition at 1 µM amounted to 45.1%. On to `CCn1c2ccccc2c2cc(NC(=O)CN3CCC(Nc4ccccc4)CC3)ccc21` [Example 32, N-(9-Ethyl-9H-carbazol-3-yl)-2-(4-phenylamino-piperidin-1-yl)-acetamide], for which the inhibition at 1 µM was 80.7% and the IC50 came out at 23.7 nM.

With `CCn1c2ccccc2c2cc(NC(=O)CN3CCC(Nc4ccccc4O)CC3)ccc21` [Example 3, N-(9-Ethyl-9H-carbazol-3-yl)-2-[4-(2-hydroxy-phenylamino)-piperidin-1-yl]-acetamide], the inhibition at 1 µM was found to be 97.8% and the IC50 was 66.1 nM. In the case of `CCn1c2ccccc2c2cc(NC(=O)CN3CCC(Nc4ccc(OC)cc4)CC3)ccc21` [Example 27, N-(9-Ethyl-9H-carbazol-3-yl)-2-[4-(4-methoxy-phenylamino)-piperidin-1-yl]-acetamide], the inhibition at 1 µM was determined as 91.1%. As to `CCN(CCO)c1ccc(NC(=O)CN2CCC(Nc3ccccc3)CC2)cc1` [Example 34, N-{4-[Ethyl-(2-hydroxy-ethyl)-amino]-phenyl}-2-(4-phenylamino-piperidin-1-yl)-acetamide], the inhibition at 1 µM was 72.6%.

Take `COc1ccc(NC2CCN(CC(=O)Nc3ccc4c(c3)-c3ccccc3C4=O)CC2)cc1` [Example 28, 2-[4-(4-Methoxy-phenylamino)-piperidin-1-yl]-N-(9-oxo-9H-fluoren-3-yl)-acetamide]: the inhibition at 1 µM is 97.3%.

On to `O=C(CN1CCC(Nc2ccccc2)CC1)Nc1ccc2c(c1)-c1ccccc1C2=O` [Example 33, N-(9-Oxo-9H-fluoren-3-yl)-2-(4-phenylamino-piperidin-1-yl)-acetamide], for which the inhibition at 1 µM was found to be 108% and the IC50 was 102 nM. Regarding `O=C(CN1CCC(Nc2ccc(O)cc2)CC1)Nc1ccc2c(c1)-c1ccccc1C2=O` [Example 16, 2-[4-(4-Hydroxy-phenylamino)-piperidin-1-yl]-N-(9-oxo-9H-fluoren-3-yl)-acetamide], the inhibition at 1 µM is 101%.

For the compound `COc1cccc(NC2CCN(CC(=O)Nc3ccc4c(c3)-c3ccccc3C4=O)CC2)c1` [Example 24, 2-[4-(3-Methoxy-phenylamino)-piperidin-1-yl]-N-(9-oxo-9H-fluoren-3-yl)-acetamide], the inhibition at 1 µM came to 97.5%. On to `O=C(CN1CCC(Nc2ccccc2O)CC1)Nc1ccc2c(c1)CCCC2=O` [Example 9, 2-[4-(2-Hydroxy-phenylamino)-piperidin-1-yl]-N-(5-oxo-5,6,7,8-tetrahydro-naphthalen-2-yl)-acetamide], for which the inhibition at 1 µM amounted to 44.7%. The same measure, in the same setting: the result for `O=C(CN1CCC(Nc2ccccc2O)CC1)Nc1ccc(C2CCCCC2)cc1` [Example 4, N-(4-Cyclohexyl-phenyl)-2-[4-(2-hydroxy-phenylamino)-piperidin-1-yl]-acetamide] reads 35.3%. Still for that read-out and setting: the result for `CCN(CCO)c1ccc(NC(=O)CN2CCC(Nc3ccc(OC)cc3)CC2)cc1` [Example 29, N-{4-[Ethyl-(2-hydroxy-ethyl)-amino]-phenyl}-2-[4-(4-methoxy-phenylamino)-piperidin-1-yl]-acetamide] reads 69%.
